# Data from patent publication US10597730B2, “Method of diagnosing cancer” (The Hospital for Sick Children, priority 2012, dated 2020).
# Entries after “also recorded” stand apart in the source; their conditions may differ.
# Legend:
# Format in all cases: cell-based, human
# [1] = tested on: neuroblastoma cell line (CHLA90); experiment: Telomerase inhibitor treatment of unmethylated neuroblastoma cell line CHLA90; conditions: CHLA90, unmethylated within region 2 of the TERT promoter, evidence of ALT; 5 μM for 5 weeks
# [2] = tested on: hypermethylated neuroblastoma cell lines; experiment: Telomerase inhibitor treatment of hypermethylated neuroblastoma cell lines; conditions: two neuroblastoma cell lines hypermethylated in region 2 of the TERT promoter, 5 μM for 5 weeks
# [3] = tested on: glioma G179 tumour-initiating cells; experiment: Telomerase inhibition, cell population doubling analysis, G179 TIC line; conditions: Imetelstat 5 μM twice a week
# Excerpt: Samples were obtained with patients' consent according to the Research Ethics Boards at The Hospital for Sick Children and Toronto Western Hospital. Fetal Neural Stem (NS) HF240 cells, human Mesenchymal Progenitor cells, human umbilical cord perivascular cells, and human skin-derived precursors hSKPs were previously described (Castelo-Branco et al. Clin Cancer Res. 2011 Jan. 1; 17(1):111-21). Glioma tumour-initiating cell (TIC) lines G179 and GLINS1 were derived from patients diagnosed with classic glioblastoma multiforme and maintained as previously described (Castelo-Branco et al., 2011). All cell lines and patient samples are described in Table 1.
# HF240 normal neural stem cell line and the G179 TIC line were treated twice a week with 5 μM Imetelstat telomerase inhibitor. Cell population doubling analysis after treatment was then determined.
substance,measurement,setting,value
Imetelstat,response to treatment (growth and viability),[1],did not
same,response to treatment (growth and viability),[2],responded
same,response to treatment (growth and viability),[2]; listed as imetelstat,inhibitory effect on growth and viability
same,growth / replicative potential (cell population doubling),[3],inhibit growth; also recorded: loss of replicative potential
